Data: patent US20130131008A1, “LIPOPHILIC MONOPHOSPHORYLATED DERIVATIVES AND NANOPARTICLES” (BOARD OF REGENTS, THE UNIVERSITY OF TEXAS SYSTEM, priority 2011, published 2013)

Assays:
CCRF-CEM-AraC-8C cells = assay: In vitro cytotoxicity assay (MTT), 72 h, hENT1 deficient cells; format: cell-based, human; conditions: for Ratio of IC50 in CCRF-CEM-AraC-8C to that in CCRF-CEM: HCl
Description: (§1) Human leukemia cell line CCRF-CEM (CCL-119), human pancreatic cancer cell lines PANC-1 (CRL-1469), MIA PaCa-2 (CRL-1420), and BxPC-3 (CRL-1687), human breast adenocarcinoma cell line MCF-7 (HTB-22), and mouse lung cancer cell line TC-1 (CRL-2785) were from the American Type Culture Collection (Rockville, Md.). CCRF-CEM-AraC-8C cells (hENT1 deficient) and CCRF-CEM/dCK^−/− cells (dCK deficient) were kindly provided by Dr. Buddy Ullmann (Oregon Health & Science University, Portland, Oreg.) and Dr. Margaret Black (Washington State University, Pullman, Wash.), respectively. L1210 wt and L1210 10K were kindly supplied by Dr. Lars Petter Jordheim (Université Claude Bernard Lyon I, Lyon, France). TC-1-GR cells were previously developed in our lab. CCRF-CEM, CCRF-CEM-AraC-8C, CCRF-CEM/dCK^−/−, L1210 wt, L1210 10K, TC-1, and TC-1-GR cells were cultured in RPMI 1640 medium. MCF-7 and PANC-1 cells were cultured in Dulbecco's modified Eagle medium (DMEM), MIA PaCa-2 cells were cultured in DMEM medium with 2.5% horse serum. All media were supplemented with 10% fetal bovine serum (FBS), 100 U/mL of penicillin, and 100 μg/mL of streptomycin (all from Invitrogen, Carlsbad, Calif.).
(§2) Cells (5,000/well) were seeded in 96-well plates. After overnight incubation, they were treated with various concentrations of gemcitabine HCl, gemcitabine derivatives, or gemcitabine derivatives in nanoparticles at 37° C., 5% CO2. TC-1 and TC-1-GR cells were incubated for 48 h. CCRF-CEM, CCRF-CEM-AraC-8C, CCRF-CEM/dCK^−/−, L1210 wt, L1210 10K, and MCF-7 cells were incubated for 72 h, and MIA PaCa-2 and PANC-1 for 96 h. Gemcitabine HCl was dissolved in phosphate-buffered saline (PBS), and gemcitabine derivatives were dissolved in dimethyl sulfoxide (DMSO). […] The number of viable cells after the incubation was determined using an MTT assay. Briefly, 3-(4,5-dimethylthiazol-2-yl)-2,5-diphenyltetrazolium bromide (20 μl, 5 mg/mL) was added in each well and incubated for 3 h. Formazan crystals were solubilized with acidified isopropanol (150 μl) (for CCRF-CEM, CCRF-CEM-AraC-8C, CCRF-CEM/dCK^−/−, L1210 wt, and L1210 10K cells) or DMSO (150 μl) (for TC-1, TC-1-GR, MCF-7, PANC-1, and MIA PaCa-2). Absorbance was measured using a BioTek Synergy™ HT Multi-Mode Microplate Reader (BioTek Instruments, Winooski, Vt.) at 570 nm and 630 nm. The fraction of affected (dead) cells (Fa) and the fraction of unaffected (live) cells (Fu) at every dose were calculated, and the Log(Fa/Fu) values were plotted against the Log(concentration of gemcitabine). IC50 was the dose at Log(Fa/Fu)=0, See e.g., Chou, T. C. & Talalay, P., 1984, Adv. Enzyme Regul. 22:27-55. The experiment was repeated at least three times.

L1210 wt cells = assay: In vitro cytotoxicity assay (MTT), 72 h; format: cell-based, murine; conditions: Mus musculus, 72 h incubation
Description: as §1, with “MCF-7 and PANC-1 cells were cultured in Dulbecco's modified Eagle medium (DMEM), MIA PaCa-2 cells were cultured in DMEM medium with 2.5% horse serum. All media were supplemented with 10% fetal bovine serum (FBS), 100 U/mL of penicillin, and 100 μg/mL of streptomycin (all from Invitrogen, Carlsbad, Calif.).” left out
Cells (5,000/well) were seeded in 96-well plates. […] The number of viable cells after the incubation was determined using an MTT assay. […] Absorbance was measured using a BioTek Synergy™ HT Multi-Mode Microplate Reader (BioTek Instruments, Winooski, Vt.) at 570 nm and 630 nm. The fraction of affected (dead) cells (Fa) and the fraction of unaffected (live) cells (Fu) at every dose were calculated, and the Log(Fa/Fu) values were plotted against the Log(concentration of gemcitabine). […]

MIA PaCa-2 cells = conditions: literature value; read-out: IC50 in MIA PaCa-2 cells reported by Duxbury et al.; cited from earlier work
PANC-1 cells = assay: Trypan blue exclusion assay of cell viability; format: cell-based, human; conditions: 400 μM
Experimental: Cell viability was determined using a trypan blue exclusion assay. Data shown are mean±S.D. (S.D.: standard deviation) (n=3). Experiment was repeated twice.

[1] = tested on: TC-1 mouse lung cancer cells (s.c. tumors); assay: Anti-tumor activity of PLGA-GemC18-NPs in TC-1 tumor-bearing mice (Example 19); format: in vivo; conditions: C57BL/6 mice, i.v. twice a week from day 11, 150 μg GemC18 per mouse per dose or molar equivalent gemcitabine HCl
Experimental: The anti-tumor activity of the PLGA-GemC18-NPs was evaluated in female C57BL/6 mice (18-20 g, 6-8 weeks, n=4-5) that were subcutaneously (s.c.) injected with TC-1 mouse lung cancer cells (ATCC # CRL-2785, 5×10^5 cells/mouse) in the right flank. Mouse hair was carefully trimmed at the injection site 1 day prior to the injection. PLGA-GemC18-NPs, GemC18-free NP (PLGA-NPs), gemcitabine hydrochloride (HCl) (U.S. Pharmacopeia; Rockville, Md.) and sterile mannitol (5%, w/v) were intravenously (i.v) injected starting on day 11, twice a week until the end of the study. The dose of the GemC18 was 150 μg per mouse per dose, or the molar equivalent dose for gemcitabine HCl. Tumor size was determined 2-3 times a week and calculated using the formulas: diameter (mm)=[length+width]/2.

CCRF-CEM cells = assay: In vitro cytotoxicity assay (MTT), 72 h; format: cell-based, human; conditions: Homo sapiens, CCRF-CEM, 72 h incubation
Description: as §1, §2

CCRF-CEM/dCK−/− cells = assay: In vitro cytotoxicity assay (MTT), 72 h, dCK deficient cells; format: cell-based, human
Description: as §1
Cells (5,000/well) were seeded in 96-well plates. After overnight incubation, they were treated with various concentrations of gemcitabine HCl, gemcitabine derivatives, or gemcitabine derivatives in nanoparticles at 37° C., 5% CO2. TC-1 and TC-1-GR cells were incubated for 48 h. CCRF-CEM, CCRF-CEM-AraC-8C, CCRF-CEM/dCK^−/−, L1210 wt, L1210 10K, and MCF-7 cells were incubated for 72 h, and MIA PaCa-2 and PANC-1 for 96 h. […] The number of viable cells after the incubation was determined using an MTT assay. […] Absorbance was measured using a BioTek Synergy™ HT Multi-Mode Microplate Reader (BioTek Instruments, Winooski, Vt.) at 570 nm and 630 nm. The fraction of affected (dead) cells (Fa) and the fraction of unaffected (live) cells (Fu) at every dose were calculated, and the Log(Fa/Fu) values were plotted against the Log(concentration of gemcitabine). […]

Cl.Nc1ccn([C@@H]2O[C@H](CO)[C@@H](O)C2(F)F)c(=O)n1 [Gemcitabine HCl, 2′,2′-difluorodeoxycytidine HCl, reference compound]
Ratio of IC50 in CCRF-CEM-AraC-8C to that in CCRF-CEM (CCRF-CEM-AraC-8C cells): 333
IC50 (CCRF-CEM-AraC-8C cells; Homo sapiens, MTT, 72 h incubation, hENT1 deficient): 998.8 ± 9.4 nM
Ratio of IC50 values in CEM-AraC-8C cells (CCRF-CEM-AraC-8C cells; IC50 of gemcitabine HCl divided by that of the derivatives or derivatives in nanoparticles): 1
Ratio of IC50 in CCRF-CEM-AraC-8C to that in CCRF-CEM (CCRF-CEM-AraC-8C cells; listed as gemcitabine HCl): 344
IC50 (L1210 wt cells): 1.3 ± 0.3 nM
IC50 (MIA PaCa-2 cells): 40 nM
Time to kill 50% of PANC-1 cells (PANC-1 cells): 116 h
TC-1 tumor growth (tumor diameter) [1]: only slightly delayed the TC-1 tumor growth
IC50 (CCRF-CEM cells): 2.9 ± 1.8 nM
Ratio of IC50 in CCRF-CEM/dCK−/− to that in CCRF-CEM (CCRF-CEM/dCK−/− cells): 82,897
IC50 (CCRF-CEM/dCK−/− cells; Homo sapiens, CCRF-CEM, MTT, 72 h incubation, dCK deficient): 240000 ± 29000 nM
